Test results reported in patent US6740642B2, “Macrolides with antibacterial activity” (BAsilea Parmaceutica AG, priority 2000, dated 2004).

Assays:
St. pneumoniae 1/1 = assay: MIC, standard microdilution; assay type: cell-based, Streptococcus pneumoniae; settings: Streptococcus pneumoniae, read-out: minimum inhibitory concentration (MIC)
Outline: (§1)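 MIC by microdilution, NCCLS M7-A4 procedure. Aerobic bacterial growth conditions.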

St. pneumoniae 12288 = assay: MIC, standard microdilution; assay type: cell-based, Streptococcus pneumoniae; settings: Streptococcus pneumoniae, read-out: minimum inhibitory concentration (MIC)
Outline: as §1

St. pneumoniae SL199T = assay: MIC, standard microdilution; assay type: cell-based, Streptococcus pneumoniae; settings: Streptococcus pneumoniae, read-out: minimum inhibitory concentration (MIC)
Outline: as §1

St. pneumoniae 1/4 = assay: MIC, standard microdilution; assay type: cell-based, Streptococcus pneumoniae; settings: Streptococcus pneumoniae, read-out: minimum inhibitory concentration (MIC)
Outline: as §1

E. coli ATCC25922 = assay: MIC, standard microdilution; assay type: cell-based; settings: Escherichia coli, read-out: minimum inhibitory concentration (MIC)
Outline: as §1

[1] = tested on: P. aeruginosa ATCC27853 (+Ery. 32 μg/ml); assay: MIC, standard microdilution; assay type: cell-based
Outline: as §1

H. influenzae 11 = assay: MIC, agar dilution, HTM medium; assay type: cell-based, Haemophilus influenzae; settings: Haemophilus influenzae, read-out: MIC
From the text: (§2) The biological activities of compounds of the present invention against Haemophilus influenzae have been determined by standard agar dilution method using HTM medium (National Committee for Clinical Laboratory Standards. 1997. Methods for dilution antimicrobial susceptibility tests for bacteria that grow aerobically, 4th edition. Approved standard M7-A4. National Committee for Clinical Laboratory Standards, Wayne, Pa.).

H. influenzae B 1501 = assay: MIC, agar dilution, HTM medium; assay type: cell-based, Haemophilus influenzae; settings: Haemophilus influenzae, B1501, read-out: MIC
From the text: as §2

H. influenzae Christy = assay: MIC, agar dilution, HTM medium; assay type: cell-based, Haemophilus influenzae; settings: Haemophilus influenzae, read-out: MIC
From the text: as §2

H. influenzae H36 ODL = assay: MIC, agar dilution, HTM medium; assay type: cell-based, Haemophilus influenzae; settings: Haemophilus influenzae, H36ODL, read-out: MIC
From the text: as §2

H. influenzae H28 HEL = assay: MIC, agar dilution, HTM medium; assay type: cell-based, Haemophilus influenzae; settings: Haemophilus influenzae, H28HEL, read-out: MIC
From the text: as §2

H. influenzae QK 50 = assay: MIC, agar dilution, HTM medium; assay type: cell-based, Haemophilus influenzae; settings: Haemophilus influenzae, QK50, read-out: MIC
From the text: as §2

H. influenzae 3457 = assay: MIC, agar dilution, HTM medium; assay type: cell-based, Haemophilus influenzae; settings: Haemophilus influenzae, read-out: MIC
From the text: as §2

H. influenzae H13 LAH = assay: MIC, agar dilution, HTM medium; assay type: cell-based, Haemophilus influenzae; settings: Haemophilus influenzae, H13LAH, read-out: MIC
From the text: as §2

H. influenzae 12214 = assay: MIC, agar dilution, HTM medium; assay type: cell-based, Haemophilus influenzae; settings: Haemophilus influenzae, read-out: MIC
From the text: as §2

H. influenzae 1 = assay: MIC, agar dilution, HTM medium; assay type: cell-based, Haemophilus influenzae; settings: Haemophilus influenzae, read-out: MIC
From the text: as §2

H. influenzae 3640 = assay: MIC, agar dilution, HTM medium; assay type: cell-based, Haemophilus influenzae; settings: Haemophilus influenzae, read-out: MIC
From the text: as §2

H. influenzae 23145 = assay: MIC, agar dilution, HTM medium; assay type: cell-based, Haemophilus influenzae; settings: Haemophilus influenzae, read-out: MIC
From the text: as §2

H. influenzae ATCC 49247 = assay: MIC, agar dilution, HTM medium; assay type: cell-based, Haemophilus influenzae; settings: Haemophilus influenzae, ATCC49247, read-out: MIC
From the text: as §2

H. influenzae QK 12/87 = assay: MIC, agar dilution, HTM medium; assay type: cell-based, Haemophilus influenzae; settings: Haemophilus influenzae, QK12/87, read-out: MIC
From the text: as §2

H. influenzae ATCC 9334 = assay: MIC, agar dilution, HTM medium; assay type: cell-based, Haemophilus influenzae; settings: Haemophilus influenzae, ATCC9334, read-out: MIC
From the text: as §2

H. influenzae 4139 = assay: MIC, agar dilution, HTM medium; assay type: cell-based, Haemophilus influenzae; settings: Haemophilus influenzae, read-out: MIC
From the text: as §2

H. influenzae Rd KW20 = assay: MIC, agar dilution, HTM medium; assay type: cell-based, Haemophilus influenzae; settings: Haemophilus influenzae, RDKW20, read-out: MIC
From the text: as §2

H. influenzae 23369 = assay: MIC, agar dilution, HTM medium; assay type: cell-based, Haemophilus influenzae; settings: Haemophilus influenzae, read-out: MIC
From the text: as §2

H. influenzae 3201 = assay: MIC, agar dilution, HTM medium; assay type: cell-based, Haemophilus influenzae; settings: Haemophilus influenzae, read-out: MIC
From the text: as §2

H. influenzae 2947 = assay: MIC, agar dilution, HTM medium; assay type: cell-based, Haemophilus influenzae; settings: Haemophilus influenzae, read-out: MIC
From the text: as §2

H. influenzae H20 HDL = assay: MIC, agar dilution, HTM medium; assay type: cell-based, Haemophilus influenzae; settings: Haemophilus influenzae, H20HDL, read-out: MIC
From the text: as §2

S. aureus ATCC29213 = assay: MIC, standard microdilution; assay type: cell-based, Staphylococcus aureus; settings: Staphylococcus aureus, read-out: minimum inhibitory concentration (MIC)
Outline: as §1

S. aureus 745 = assay: MIC, standard microdilution; assay type: cell-based, Staphylococcus aureus; settings: Staphylococcus aureus, read-out: minimum inhibitory concentration (MIC)
Outline: as §1

S. aureus 1086 = assay: MIC, standard microdilution; assay type: cell-based, Staphylococcus aureus; settings: Staphylococcus aureus, read-out: minimum inhibitory concentration (MIC)
Outline: as §1

CC[C@H]1OC(=O)[C@H](C)C(=O)[C@H](C)[C@@H](O[C@@H]2O[C@H](C)C[C@H](N(C)C)[C@H]2O)[C@](C)(OC)C[C@@H](C)C(=O)[C@H](C)[C@H]2[C@H](SCCn3cc(C)c(=O)[nH]c3=O)C(=O)O[C@@]21C [Compound I-7, (3S,3aR,4R,6R,8R,9R,10R,12R,15R,15aS)-15-Ethyloctahydro-8-methoxy-4,6,8,10,12,15a-hexamethyl-3-[[2-[5-methyl-2,4-1H,3H-pyrimidinedione-1-yl]ethyl]thio]-9-[[3,4,6-trideoxy-3-(dimethylamino)-β-D-xylo-hexopyranosyl]oxy]-2H-furo[2,3-c]oxacyclotetradecin-2,5,11,13(3H,6H,12H)-tetrone]
≤ 0.12 µg/mL: MIC (St. pneumoniae 1/1) | MIC (St. pneumoniae 1/4) | MIC (S. aureus ATCC29213) | MIC (S. aureus 1086)
>16 µg/mL: minimum inhibitory concentration (MIC) [1]
4 µg/mL: MIC (H. influenzae 11) | MIC (H. influenzae B 1501) | MIC (H. influenzae Christy) | MIC (H. influenzae QK 50) | MIC (H. influenzae H13 LAH) | MIC (H. influenzae 12214) | MIC (H. influenzae 1) | MIC (H. influenzae 23145) | MIC (H. influenzae ATCC 49247) | MIC (H. influenzae ATCC 9334) | MIC (H. influenzae Rd KW20) | MIC (H. influenzae 3201) | MIC (H. influenzae 2947)
0.5 µg/mL: MIC (H. influenzae 3457)
2 µg/mL: MIC (H. influenzae H28 HEL) | MIC (H. influenzae 3640) | MIC (H. influenzae QK 12/87) | MIC (H. influenzae 4139) | MIC (H. influenzae H20 HDL)
8 µg/mL: MIC (St. pneumoniae 12288) | MIC (H. influenzae H36 ODL) | MIC (H. influenzae 23369)
1 µg/mL: MIC (St. pneumoniae SL199T)
> 16 µg/mL: MIC (E. coli ATCC25922) | MIC (S. aureus 745)

CC[C@H]1OC(=O)[C@H](C)C(=O)[C@H](C)[C@@H](O[C@@H]2O[C@H](C)C[C@H](N(C)C)[C@H]2O)[C@](C)(OC)C[C@@H](C)C(=O)[C@H](C)[C@H]2[C@H](SCCn3cnc4c(N)ncnc43)C(=O)O[C@@]21C [Compound I-14, (3S,3aR,4R,6R,8R,9R,10R,12R,15R,15aS)-3-[[2-[6-Amino-9H-purine-9-yl]ethyl]thio]-15-ethyloctahydro-8-methoxy-4,6,8,10,12,15a-hexamethyl-9-[[3,4,6-trideoxy-3-(dimethylamino)-β-D-xylo-hexopyranosyl]oxy]-2H-furo[2,3-c]oxacyclotetradecin-2,5,11,13(3H,6H,12H)-tetrone]
8 µg/mL: MIC (E. coli ATCC25922)
0.25 µg/mL: MIC (St. pneumoniae 12288) | MIC (St. pneumoniae SL199T) | MIC (St. pneumoniae 1/4) | MIC (H. influenzae 3457)
≤ 0.12 µg/mL: MIC (St. pneumoniae 1/1) | MIC (S. aureus ATCC29213) | MIC (S. aureus 1086)
0.5 µg/mL: MIC (H. influenzae QK 12/87)
> 16 µg/mL: MIC (S. aureus 745)
>16 µg/mL: minimum inhibitory concentration (MIC) [1]
1 µg/mL: MIC (H. influenzae B 1501) | MIC (H. influenzae 1) | MIC (H. influenzae ATCC 49247) | MIC (H. influenzae H20 HDL)
4 µg/mL: MIC (H. influenzae 11) | MIC (H. influenzae 23145) | MIC (H. influenzae ATCC 9334) | MIC (H. influenzae Rd KW20) | MIC (H. influenzae 23369) | MIC (H. influenzae 3201)
2 µg/mL: MIC (H. influenzae Christy) | MIC (H. influenzae H36 ODL) | MIC (H. influenzae H28 HEL) | MIC (H. influenzae QK 50) | MIC (H. influenzae H13 LAH) | MIC (H. influenzae 12214) | MIC (H. influenzae 3640) | MIC (H. influenzae 4139) | MIC (H. influenzae 2947)
